The source made the active and inactive calls. No cut-off for these calls is given here.
How the values were obtained:
Assay type in all cases: cell-based
[1] = molecular target: T1, Glucocorticoid receptor (Homo sapiens) (UniProt P04150); experiment: Antagonist activity at human GRalpha expressed in HEK293 cells assessed as inhibition of dexamethasone-induced response at 30 uM after 24 hrs by luciferase reporter gene assay relative to control
T1 sequence (whole entry): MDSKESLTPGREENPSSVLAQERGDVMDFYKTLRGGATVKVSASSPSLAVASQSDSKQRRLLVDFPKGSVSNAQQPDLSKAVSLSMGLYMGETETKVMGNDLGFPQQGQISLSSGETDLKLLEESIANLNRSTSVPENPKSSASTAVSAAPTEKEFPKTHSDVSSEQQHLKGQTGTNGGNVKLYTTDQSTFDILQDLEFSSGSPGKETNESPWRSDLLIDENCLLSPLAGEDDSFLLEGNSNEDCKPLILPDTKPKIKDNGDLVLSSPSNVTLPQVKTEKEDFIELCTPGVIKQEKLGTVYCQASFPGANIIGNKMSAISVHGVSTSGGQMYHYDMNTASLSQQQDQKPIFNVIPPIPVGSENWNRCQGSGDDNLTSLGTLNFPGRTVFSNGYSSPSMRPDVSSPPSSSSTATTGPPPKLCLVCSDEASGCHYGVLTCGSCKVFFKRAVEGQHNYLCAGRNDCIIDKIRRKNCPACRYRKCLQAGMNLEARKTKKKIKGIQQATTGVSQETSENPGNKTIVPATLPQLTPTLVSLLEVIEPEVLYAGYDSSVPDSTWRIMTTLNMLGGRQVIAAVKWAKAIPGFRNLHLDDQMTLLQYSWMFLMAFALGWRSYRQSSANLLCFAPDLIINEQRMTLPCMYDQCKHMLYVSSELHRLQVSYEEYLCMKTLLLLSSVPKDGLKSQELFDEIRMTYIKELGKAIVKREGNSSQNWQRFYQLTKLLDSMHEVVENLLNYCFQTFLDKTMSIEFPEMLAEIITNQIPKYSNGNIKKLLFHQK

[2] = molecular target: T2, Glucocorticoid receptor (Homo sapiens, UniProt P04150); experiment: Transactivation of human GRalpha expressed in HEK293 cells after 24 hrs by luciferase reporter gene assay; details: hek293, 24 h
T2 sequence (P04150 whole entry): T1 sequence (whole entry)

[3] = molecular target: T2, Glucocorticoid receptor; experiment: (§1) Antagonist activity at human GRalpha expressed in HEK293 cells assessed as inhibition of dexamethasone-induced response after 24 hrs by luciferase reporter gene assay
[4] = molecular target: T1, Glucocorticoid receptor (Homo sapiens); experiment: Transrepression of human GRalpha expressed in HEK293 cells co-expressing pGL4.32 assessed as inhibition of TNFalpha-stimulated NF-kB activity at 30 uM preincubated for 4 hrs followed by TNFalpha addition measured after 3 hrs by luciferase reporter gene assay relative to control
[5] = molecular target: T1, Glucocorticoid receptor (Homo sapiens); experiment: as §1

Structure (SMILES)	inhibition [1]	Activity [2]	IC50 [3]	inhibition [4]	inhibition [5]
N#Cc1cccc(S(=O)(=O)N(Cc2ccccc2)c2ccc(Oc3ccccc3)cc2)c1	inactive	Not Active	–	–	–
N#Cc1ccc(S(=O)(=O)N(Cc2cccc3ccccc23)c2ccc(Oc3ccccc3)cc2)cc1	< 50%	Not Active	> 30 µM	–	–
N#Cc1ccc(S(=O)(=O)N(Cc2ccc(Cl)cc2)c2ccc(Oc3ccccc3)cc2)cc1	< 50%	Not Active	> 30 µM	–	–
Nc1cccc(S(=O)(=O)N(Cc2ccccc2)c2ccc(Oc3ccccc3)cc2)c1	–	Not Active	–	39%	–
CCNc1ccc(S(=O)(=O)N(Cc2ccccc2)c2ccc(Oc3ccccc3)cc2)cc1	–	Not Active	–	inactive	–
COc1ccc(S(=O)(=O)N(Cc2ccccc2)c2ccc(Oc3ccccc3)cc2)cc1	–	Not Active	1.87 µM	–	–
N#Cc1ccccc1S(=O)(=O)N(Cc1ccccc1)c1ccc(Oc2ccccc2)cc1	< 50%	Not Active	> 30 µM	–	–
CC(C)(C)c1ccc(S(=O)(=O)N(Cc2ccccc2)c2ccc(Oc3ccccc3)cc2)cc1	< 50%	Not Active	> 30 µM	–	–
O=[N+]([O-])c1ccc(S(=O)(=O)N(Cc2ccccc2)c2ccc(Oc3ccccc3)cc2)cc1	–	Not Active	5.77 µM	–	–
CC(C)(C)c1ccc(CN(c2ccc(Oc3ccccc3)cc2)S(=O)(=O)c2ccc(C#N)cc2)cc1	inactive	Not Active	–	–	–
CC(=O)Nc1ccc(S(=O)(=O)N(Cc2ccccc2)c2ccc(Oc3ccccc3)cc2)cc1	–	Not Active	1.97 µM	60%	–
N#Cc1ccc(S(=O)(=O)N(Cc2ccc(Br)cc2)c2ccc(Oc3ccccc3)cc2)cc1	–	Not Active	7.87 µM	–	–
O=S(=O)(c1ccc(F)cc1)N(Cc1ccccc1)c1ccc(Oc2ccccc2)cc1	–	Not Active	2.04 µM	–	–
COc1ccc(Oc2ccc(N(Cc3ccccc3)S(=O)(=O)c3ccc(C#N)cc3)cc2)cc1	< 50%	Not Active	> 30 µM	–	–
COC(=O)Nc1ccc(S(=O)(=O)N(Cc2ccccc2)c2ccc(Oc3ccccc3)cc2)cc1	–	Not Active	2.11 µM	32%	–
O=S(=O)(Nc1ccc(Oc2ccccc2)cc1)c1cccc(C(F)(F)F)c1	–	Not Active	11.7 µM	–	–
CNc1ccc(S(=O)(=O)N(Cc2ccccc2)c2ccc(Oc3ccccc3)cc2)cc1	–	Not Active	–	inactive	–
N#Cc1ccc(S(=O)(=O)N(Cc2ccc(F)cc2)c2ccc(Oc3ccccc3)cc2)cc1	< 50%	Not Active	> 30 µM	–	–
COc1cccc(C(=O)Nc2ccc(Oc3ccc(O)cc3)c(C)c2)c1	–	Not Active	–	–	inactive
O=S(=O)(c1ccc(OC(F)(F)F)cc1)N(Cc1ccccc1)c1ccc(Oc2ccccc2)cc1	–	Not Active	7.48 µM	–	–

Structure (SMILES)	inhibition [1]	Activity [2]	IC50 [3]	inhibition [4]	inhibition [5]
O=S(=O)(c1ccc(C(F)(F)F)cc1)N(Cc1ccccc1)c1ccc(Oc2ccccc2)cc1	< 50%	Not Active	> 30 µM	–	–
COc1ccccc1Oc1ccc(N(Cc2ccccc2)S(=O)(=O)c2ccc(C#N)cc2)cc1	inactive	Not Active	–	–	–
N#Cc1ccc(S(=O)(=O)N(CCCc2ccccc2)c2ccc(Oc3ccccc3)cc2)cc1	< 50%	Not Active	> 30 µM	–	–
CCN(CC)c1ccc(S(=O)(=O)N(Cc2ccccc2)c2ccc(Oc3ccccc3)cc2)cc1	–	Not Active	–	inactive	–
N#Cc1ccc(S(=O)(=O)N(CCc2ccccc2)c2ccc(Oc3ccccc3)cc2)cc1	< 50%	Not Active	> 30 µM	–	–
N#Cc1ccc(S(=O)(=O)N(Cc2cccc(Cl)c2)c2ccc(Oc3ccccc3)cc2)cc1	–	Not Active	5.42 µM	–	–
CN(C)c1ccc(S(=O)(=O)N(Cc2ccccc2)c2ccc(Oc3ccccc3)cc2)cc1	–	Not Active	–	inactive	–
Nc1ccccc1S(=O)(=O)N(Cc1ccccc1)c1ccc(Oc2ccccc2)cc1	–	Not Active	–	46%	–
O=S(=O)(c1ccc(Cl)cc1)N(Cc1ccccc1)c1ccc(Oc2ccccc2)cc1	–	Not Active	2.4 µM	–	–
N#Cc1ccc(S(=O)(=O)N(Cc2ccccc2Cl)c2ccc(Oc3ccccc3)cc2)cc1	–	Not Active	> 30 µM	–	–
COc1ccc(CN(c2ccc(Oc3ccccc3)cc2)S(=O)(=O)c2ccc(C#N)cc2)cc1	inactive	Not Active	–	–	–
N#Cc1ccc(S(=O)(=O)N(CC2CC2)c2ccc(Oc3ccccc3)cc2)cc1	inactive	Not Active	–	–	–
Cc1ccc(S(=O)(=O)N(Cc2ccccc2)c2ccc(Oc3ccccc3)cc2)cc1	–	Not Active	2.02 µM	–	–
O=S(=O)(c1ccc(S(F)(F)(F)(F)F)cc1)N(Cc1ccccc1)c1ccc(Oc2ccccc2)cc1	< 50%	Not Active	> 30 µM	–	–
COc1cccc(Oc2ccc(N(Cc3ccccc3)S(=O)(=O)c3ccc(C#N)cc3)cc2)c1	inactive	Not Active	–	–	–
O=S(=O)(c1ccccc1)N(Cc1ccccc1)c1ccc(Oc2ccccc2)cc1	–	Not Active	3.59 µM	–	–
Cc1ccc(CN(c2ccc(Oc3ccccc3)cc2)S(=O)(=O)c2ccc(C#N)cc2)cc1	< 50%	Not Active	> 30 µM	–	–
N#Cc1ccc(S(=O)(=O)N(Cc2ccc3ccccc3c2)c2ccc(Oc3ccccc3)cc2)cc1	< 50%	Not Active	> 30 µM	–	–
Nc1ccc(S(=O)(=O)N(Cc2ccccc2)c2ccc(Oc3ccccc3)cc2)cc1	–	Not Active	3.15 µM	64%	–
O=S(=O)(c1ccc(Br)cc1)N(Cc1ccccc1)c1ccc(Oc2ccccc2)cc1	< 50%	Not Active	> 30 µM	–	–

— ChEMBL document CHEMBL4033684, “Development of nonsteroidal glucocorticoid receptor modulators based on N-benzyl-N-(4-phenoxyphenyl)benzenesulfonamide scaffold” (Bioorg Med Chem, 2017)
